Measurements as given in ChEMBL document CHEMBL5500377, “Design, synthesis and molecular modeling of novel D-ring substituted steroidal 4,5-dihydropyrazole thiazolinone derivatives as anti-inflammatory agents by inhibition of COX-2/iNOS production and down-regulation of NF-κB/MAPKs in LPS-induced RAW264.7 macrophage cells” (Eur J Med Chem, 2024).
The source made the active and inactive calls. The rule behind the calls is not given here.

Key:
RAW264.7 [1] = test: Anti-inflammatory activity against mouse RAW264.7 cells assessed as inhibition of LPS-induced NO production at 5 uM measured after 24 hrs incubation by Griess assay relative to control; format: functional
[2] = Cytotoxicity against mouse RAW264.7 cells assessed as cell viability at 5 uM measured after 24 hrs incubation by MTT assay relative to control; format: toxicity, cell-based; settings: read-out: Activity
RAW264.7 [3] = test: Anti-inflammatory activity against mouse RAW264.7 cells assessed as inhibition of LPS-induced NO production measured after 24 hrs incubation by Griess assay; format: functional, cell-based; settings: RAW264.7, 24 h
RAW264.7 [4] = test: Inhibition of ERK protein level in LPS-induced mouse RAW264.7 cells at 2.5 to 10 uM pretreated for 1 hr followed by induced with LPS measured after 24 hrs by Western blot analysis; format: functional, cell-based; settings: dose 2.5-10 µM, time 25.0 hrs
RAW264.7 [5] = test: Anti-inflammatory activity against mouse RAW264.7 cells assessed as inhibition of LPS-induced TNFalpha mRNA level pretreated for 1 hr followed by induced with LPS measured after 6 hrs by quantitative RT-PCR analysis; format: functional, cell-based; settings: dose 2.5-20 µM, time 7.0 hrs
RAW264.7 [6] = test: Inhibition of LPS-induced ERK phosphorylation in mouse RAW264.7 cells at 2.5 to 10 uM pretreated for 1 hr followed by induced with LPS measured after 24 hrs by Western blot analysis; format: cell-based; settings: dose 2.5-10 µM, time 25.0 hrs
[7] = target: c-Jun N-terminal kinase (Mus musculus) (UniProt Q91Y86+Q9WTU6+Q61831); test: Inhibition of LPS-induced JNK phosphorylation in mouse RAW264.7 cells at 2.5 to 10 uM pretreated for 1 hr followed by induced with LPS measured after 24 hrs by Western blot analysis; format: cell-based; settings: dose 2.5-10 µM, time 25.0 hrs
Chain of c-Jun N-terminal kinase (Mus musculus) (Q61831 whole entry, looked up): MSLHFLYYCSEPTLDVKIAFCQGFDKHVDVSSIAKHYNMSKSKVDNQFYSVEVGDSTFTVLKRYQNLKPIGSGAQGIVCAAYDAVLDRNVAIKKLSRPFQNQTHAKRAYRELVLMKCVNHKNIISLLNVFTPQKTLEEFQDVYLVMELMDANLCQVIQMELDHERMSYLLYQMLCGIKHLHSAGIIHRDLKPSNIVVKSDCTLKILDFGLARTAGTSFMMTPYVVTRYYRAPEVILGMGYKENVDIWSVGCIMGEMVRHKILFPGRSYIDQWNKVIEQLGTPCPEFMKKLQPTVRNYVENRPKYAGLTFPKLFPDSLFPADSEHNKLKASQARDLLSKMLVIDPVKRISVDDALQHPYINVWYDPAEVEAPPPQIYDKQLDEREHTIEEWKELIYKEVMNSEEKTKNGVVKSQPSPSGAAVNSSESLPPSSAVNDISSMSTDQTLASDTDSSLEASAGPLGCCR
Chain of c-Jun N-terminal kinase (Mus musculus) (Q91Y86 whole entry, looked up): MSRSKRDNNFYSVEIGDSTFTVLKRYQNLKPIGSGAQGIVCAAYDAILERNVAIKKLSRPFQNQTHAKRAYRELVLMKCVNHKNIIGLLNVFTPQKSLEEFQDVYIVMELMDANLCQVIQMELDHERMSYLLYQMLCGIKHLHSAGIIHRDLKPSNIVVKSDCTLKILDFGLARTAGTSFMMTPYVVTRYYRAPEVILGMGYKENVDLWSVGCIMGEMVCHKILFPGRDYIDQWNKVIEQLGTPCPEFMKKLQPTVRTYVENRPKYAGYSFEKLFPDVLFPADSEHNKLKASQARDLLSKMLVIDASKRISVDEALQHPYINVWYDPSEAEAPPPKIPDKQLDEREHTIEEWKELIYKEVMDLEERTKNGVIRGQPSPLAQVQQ
Chain of c-Jun N-terminal kinase (Mus musculus) (Q9WTU6 whole entry, looked up): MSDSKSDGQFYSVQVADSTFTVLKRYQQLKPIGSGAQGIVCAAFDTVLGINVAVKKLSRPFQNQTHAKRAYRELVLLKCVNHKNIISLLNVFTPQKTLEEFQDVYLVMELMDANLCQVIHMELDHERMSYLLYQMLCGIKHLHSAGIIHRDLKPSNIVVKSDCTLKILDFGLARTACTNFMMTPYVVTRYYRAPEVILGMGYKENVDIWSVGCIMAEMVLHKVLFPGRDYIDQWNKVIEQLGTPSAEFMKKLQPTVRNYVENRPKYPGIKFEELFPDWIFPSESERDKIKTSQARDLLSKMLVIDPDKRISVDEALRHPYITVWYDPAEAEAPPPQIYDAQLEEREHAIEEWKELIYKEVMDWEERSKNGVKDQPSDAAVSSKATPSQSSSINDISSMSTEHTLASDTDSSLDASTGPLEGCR

RAW264.7 [8] = test: Anti-inflammatory activity against mouse RAW264.7 cells assessed as inhibition of LPS-induced TNFalpha level at 2.5 uM pretreated for 1 hr followed by induced with LPS measured after 24 hrs by ELISA (reference value: 0.61 ng/ml); format: functional; settings: time 25 hrs
RAW264.7 [9] = test: Anti-inflammatory activity against mouse RAW264.7 cells assessed as inhibition of LPS-induced COX2 level at 20 uM pretreated for 1 hr followed by induced with LPS measured after 24 hrs by ELISA (reference value: 95.38 pg/ml); format: functional; settings: time 25 hrs
RAW264.7 [10] = test: Anti-inflammatory activity against mouse RAW264.7 cells assessed as inhibition of LPS-induced iNOS mRNA level pretreated for 1 hr followed by induced with LPS measured after 6 hrs by quantitative RT-PCR analysis; format: functional, cell-based; settings: dose 2.5-20 µM, time 7.0 hrs
RAW264.7 [11] = test: Reduction in LPS-induced nuclear p65 level in mouse RAW264.7 cells at 2.5 to 10 uM pretreated for 1 hr followed by induced with LPS measured after 24 hrs by Western blot analysis; format: functional, cell-based; settings: dose 2.5-10 µM, time 25.0 hrs
RAW264.7 [12] = test: Anti-inflammatory activity against mouse RAW264.7 cells assessed as inhibition of LPS-induced iNOS level pretreated for 1 hr followed by induced with LPS measured after 24 hrs by Western blot analysis; format: functional, cell-based; settings: dose 2.5-10 µM, time 25.0 hrs
RAW264.7 [13] = test: Inhibition of LPS-induced NFkappaB p65 translocation from cytosol to nucleus in mouse RAW264.7 cells at 2.5 to 10 uM pretreated for 1 hr followed by induced with LPS measured after 24 hrs by Western blot analysis; format: subcellular; settings: dose 2.5-10 µM, time 25.0 hrs
RAW264.7 [14] = test: Anti-inflammatory activity against mouse RAW264.7 cells assessed as inhibition of LPS-induced activation of NF-kappaB p65 by measuring phosphorylation pretreated for 1 hr followed by induced with LPS measured after 24 hrs by Western blot analysis; format: functional, cell-based; settings: dose 2.5-10 µM, time 25.0 hrs
RAW264.7 [15] = test: Anti-inflammatory activity against mouse RAW264.7 cells assessed as inhibition of LPS-induced IL-6 mRNA level pretreated for 1 hr followed by induced with LPS measured after 6 hrs by quantitative RT-PCR analysis; format: functional, cell-based; settings: dose 2.5-20 µM, time 7.0 hrs
[16] = target: MAP kinase p38 (Mus musculus) (UniProt P47811+O08911+Q9WUI1+Q9Z1B7); test: Inhibition of LPS-induced p38 MAPK phosphorylation in mouse RAW264.7 cells at 2.5 to 10 uM pretreated for 1 hr followed by induced with LPS measured after 24 hrs by Western blot analysis; format: cell-based; settings: dose 2.5-10 µM, time 25.0 hrs
RAW264.7 [17] = test: Anti-inflammatory activity against mouse RAW264.7 cells assessed as inhibition of LPS-induced COX2 mRNA level pretreated for 1 hr followed by induced with LPS measured after 6 hrs by quantitative RT-PCR analysis; format: functional, cell-based; settings: dose 2.5-20 µM, time 7.0 hrs
RAW264.7 [18] = test: Inhibition of p38 MAPK protein level in LPS-induced mouse RAW264.7 cells at 2.5 to 10 uM pretreated for 1 hr followed by induced with LPS measured after 24 hrs by Western blot analysis; format: functional, cell-based; settings: dose 2.5-10 µM, time 25.0 hrs
RAW264.7 [19] = test: Anti-inflammatory activity against mouse RAW264.7 cells assessed as inhibition of LPS-induced TNFalpha level at 5 uM pretreated for 1 hr followed by induced with LPS measured after 24 hrs by ELISA (reference value: 0.61 ng/ml); format: functional; settings: time 25 hrs
RAW264.7 [20] = test: Anti-inflammatory activity against mouse RAW264.7 cells assessed as inhibition of LPS-induced COX2 level pretreated for 1 hr followed by induced with LPS measured after 24 hrs by Western blot analysis; format: functional, cell-based; settings: dose 2.5-10 µM, time 25.0 hrs
RAW264.7 [21] = test: Inhibition of JNK protein level in LPS-induced mouse RAW264.7 cells at 2.5 to 10 uM pretreated for 1 hr followed by induced with LPS measured after 24 hrs by Western blot analysis; format: functional, cell-based; settings: dose 2.5-10 µM, time 25.0 hrs
RAW264.7 [22] = test: Inhibition of LPS-induced translocation of NFkappaB p65 heterodimer into nucleus in mouse RAW264.7 cells at 2.5 to 10 uM pretreated for 1 hr followed by induced with LPS measured after 24 hrs by Western blot analysis; format: subcellular; settings: dose 2.5-10 µM, time 25.0 hrs
BV-2 = test: Anti-inflammatory activity against […] assessed as inhibition of LPS-induced NO production at 2.5 to 20 uM measured after 24 hrs incubation by Griess assay; format: functional, cell-based; settings: dose 2.5-20 µM
RAW264.7 [23] = test: Anti-inflammatory activity against mouse RAW264.7 cells assessed as inhibition of LPS-induced TNFalpha level at 10 uM pretreated for 1 hr followed by induced with LPS measured after 24 hrs by ELISA (reference value: 0.61 ng/ml); format: functional; settings: time 25 hrs
RAW264.7 [24] = test: Anti-inflammatory activity against mouse RAW264.7 cells assessed as inhibition of LPS-induced COX2 level at 2.5 uM pretreated for 1 hr followed by induced with LPS measured after 24 hrs by ELISA (reference value: 95.38 pg/ml); format: functional; settings: time 25 hrs
RAW264.7 [25] = test: Anti-inflammatory activity against mouse RAW264.7 cells assessed as inhibition of LPS-induced TNFalpha level pretreated for 1 hr followed by induced with LPS measured after 24 hrs by ELISA; format: functional, cell-based; settings: dose 2.5-20 µM, time 25.0 hrs
RAW264.7 [26] = test: Anti-inflammatory activity against mouse RAW264.7 cells assessed as inhibition of LPS-induced COX2 level at 5 uM pretreated for 1 hr followed by induced with LPS measured after 24 hrs by ELISA (reference value: 95.38 pg/ml); format: functional; settings: time 25 hrs
RAW264.7 [27] = test: Anti-inflammatory activity against mouse RAW264.7 cells assessed as inhibition of LPS-induced COX2 level at 10 uM pretreated for 1 hr followed by induced with LPS measured after 24 hrs by ELISA (reference value: 95.38 pg/ml); format: functional; settings: time 25 hrs
RAW264.7 [28] = test: Anti-inflammatory activity against mouse RAW264.7 cells assessed as inhibition of LPS-induced COX2 level pretreated for 1 hr followed by induced with LPS measured after 24 hrs by ELISA; format: functional, cell-based; settings: dose 2.5-20 µM, time 25.0 hrs
RAW264.7 [29] = test: Anti-inflammatory activity against mouse RAW264.7 cells assessed as inhibition of LPS-induced TNFalpha level at 20 uM pretreated for 1 hr followed by induced with LPS measured after 24 hrs by ELISA (reference value: 0.61 ng/ml); format: functional; settings: time 25 hrs

C[C@]12CC[C@H]3[C@@H](CC=C4C[C@@H](O)CC[C@@]43C)[C@@H]1CC[C@@H]2C1=NN(C2=NC(=O)CS2)C(c2ccccc2OCc2ccccc2)C1 (stereo partly drawn)
inhibition at 5 µM (RAW264.7 [1]): 48.2%
viability at 24 h, 5 µM [2]: 69%

C[C@]12CC[C@H]3[C@@H](CC=C4C[C@@H](O)CC[C@@]43C)[C@@H]1CC[C@@H]2C1=NN(C2=NC(=O)CS2)C(c2ccc(Cl)cc2)C1 (stereo partly drawn)
IC50 (RAW264.7 [3]): 4070 nM
inhibition at 5 µM (RAW264.7 [1]): 46.3%
viability at 24 h, 5 µM [2]: 85.1%

C[C@]12CC[C@H]3[C@@H](CC=C4C[C@@H](O)CC[C@@]43C)[C@@H]1CC[C@@H]2C1=NN(C2=NC(=O)CS2)C(c2cccc(F)c2)C1 (stereo partly drawn)
inhibition (RAW264.7 [4]): inactive
inhibition (RAW264.7 [5]): Dose-Dependent Effect
inhibition (RAW264.7 [6]): Active
inhibition [7]: Active
IC50 (RAW264.7 [3]): 2340 nM
Activity (RAW264.7 [8]): 0.51 ng/mL
Activity (RAW264.7 [9]): 0.0378 ng/mL
inhibition (RAW264.7 [10]): Dose-Dependent Effect
inhibition (RAW264.7 [11]): Active
inhibition (RAW264.7 [12]): Dose-Dependent Effect
inhibition (RAW264.7 [13]): Active
inhibition (RAW264.7 [14]): Dose-Dependent Effect
inhibition (RAW264.7 [15]): Dose-Dependent Effect
inhibition [16]: Active
inhibition (RAW264.7 [17]): Dose-Dependent Effect
Activity (RAW264.7 [18]): inactive
Activity (RAW264.7 [19]): 0.42 ng/mL
inhibition (RAW264.7 [20]): Dose-Dependent Effect
inhibition at 5 µM (RAW264.7 [1]): 45.4%
Activity (RAW264.7 [21]): inactive
inhibition (RAW264.7 [22]): Active
viability at 24 h, 5 µM [2]: 97.4%
inhibition (BV-2): Active
Activity (RAW264.7 [23]): 0.33 ng/mL
Activity (RAW264.7 [24]): 0.0824 ng/mL
inhibition (RAW264.7 [25]): Dose-Dependent Effect
Activity (RAW264.7 [26]): 0.0624 ng/mL
Activity (RAW264.7 [27]): 0.0428 ng/mL
inhibition (RAW264.7 [28]): Dose-Dependent Effect
Activity (RAW264.7 [29]): 0.3 ng/mL

C[C@]12CC[C@H]3[C@@H](CC=C4C[C@@H](O)CC[C@@]43C)[C@@H]1CC[C@@H]2C1=NN(C2=NC(=O)CS2)C(c2ccc(C#N)cc2)C1 (stereo partly drawn)
IC50 (RAW264.7 [3]): 6890 nM
inhibition at 5 µM (RAW264.7 [1]): 48.8%
viability at 24 h, 5 µM [2]: 93.4%

CCOc1ccc(C2CC([C@H]3CC[C@H]4[C@@H]5CC=C6C[C@@H](O)CC[C@]6(C)[C@H]5CC[C@]34C)=NN2C2=NC(=O)CS2)cc1 (stereo partly drawn)
IC50 (RAW264.7 [3]): 2360 nM
inhibition at 5 µM (RAW264.7 [1]): 47.8%
viability at 24 h, 5 µM [2]: 87.7%
inhibition (RAW264.7 [25]): Dose-Dependent Effect
inhibition (RAW264.7 [28]): Dose-Dependent Effect

CCc1ccc(C2CC([C@H]3CC[C@H]4[C@@H]5CC=C6C[C@@H](O)CC[C@]6(C)[C@H]5CC[C@]34C)=NN2C2=NC(=O)CS2)cc1 (stereo partly drawn)
inhibition at 5 µM (RAW264.7 [1]): 39.9%
viability at 24 h, 5 µM [2]: 82.8%

C[C@@H]1C[C@H]2[C@@H]3CCC4=CC(=O)C=C[C@]4(C)[C@@]3(F)[C@@H](O)C[C@]2(C)[C@@]1(O)C(=O)CO [DEXAMETHASONE]
IC50 (RAW264.7 [3]): 3800 nM
inhibition at 5 µM (RAW264.7 [1]): 42.3%
viability at 24 h, 5 µM [2]: 92%
inhibition (RAW264.7 [25]): Dose-Dependent Effect
inhibition (RAW264.7 [28]): Dose-Dependent Effect

C[C@]12CC[C@H]3[C@@H](CC=C4C[C@@H](O)CC[C@@]43C)[C@@H]1CC[C@@H]2C1=NN(C2=NC(=O)CS2)C(c2ccc(Br)cc2)C1 (stereo partly drawn)
IC50 (RAW264.7 [3]): 2270 nM
inhibition at 5 µM (RAW264.7 [1]): 45.4%
viability at 24 h, 5 µM [2]: 85.5%
inhibition (RAW264.7 [25]): Dose-Dependent Effect
inhibition (RAW264.7 [28]): Dose-Dependent Effect

Cc1cccc(C2CC([C@H]3CC[C@H]4[C@@H]5CC=C6C[C@@H](O)CC[C@]6(C)[C@H]5CC[C@]34C)=NN2C2=NC(=O)CS2)c1 (stereo partly drawn)
IC50 (RAW264.7 [3]): 2900 nM
inhibition at 5 µM (RAW264.7 [1]): 51.9%
viability at 24 h, 5 µM [2]: 75.9%
